The text below walks through data of patent US20150025119A1, “Release Application for Antihypertensive Agent on Plant Fiber Bundle” (National Tsing Hua University, priority 2013, published 2015).

The series in a line: Release of Valsartan from plant fiber bundle base (toothpick) in physiological saline, fluorescence analysis. It counts as physicochemical. The conditions noted are these: toothpick impregnated at 10 mg/mL, released in physiological saline for 1, 3, 5, 10 minutes, 38 repetitions, FIG. 4. From the text: Firstly, in step 100, antihypertensive agents are fixed onto a plant fiber bundle base such as a toothpick, i.e., solid antihypertensive agents attached onto the plant fiber bundle base. In this step, the plant fiber bundle base may be impregnated in liquid antihypertensive agents. Because of the physical adsorption properties of plant fiber bundles, the composition of the liquid antihypertensive agents is gradually adsorbed into the plant fiber bundles until the amount of antihypertensive agents on plant fiber bundle base reaches a saturated condition. In one embodiment, the concentration of antihypertensive agents (e.g., Valsartan) in liquid form is 2.5, 5, 8, 10, 20 mg/mL, respectively. Then, the plant fiber bundle base is removed. […] Next, in step 102, fluorescence analysis of the released anti-hypertensive agents is performed. […] Based on this feature, an optical instrument is used for fluorescence analysis of different concentrations of Valsartan affixed to toothpicks. Fluorescence analysis of different concentrations of Valsartan was performed using ImageJ image analysis software. […] An optical instrument is used to collect fluorescence data of Valsartan after release in physiological saline in 38 repetitions of the experiment. […]

In the case of `CCCCC(=O)N(Cc1ccc(-c2ccccc2-c2nnn[nH]2)cc1)[C@H](C(=O)O)C(C)C` [Valsartan], the “proportion of release (release percentage) of Valsartan over time” value is recorded as “increases until the saturation level is reached”.
